In patent publication US12702657B2, “Treatment and prevention of dengue disease” (Janssen Pharmaceuticals, Inc., priority 2019, dated 2026):

How the values were obtained:
DENV-2/16681 = test: Pre-exposure prophylaxis in non-human primate model against DENV-2/16681; assay type: in vivo, rhesus monkeys (Macaca mulatta); conditions: for reduction in median peak DENV RNA compared with vehicle, significance / median reduction in DENV peak RNA levels compared with vehicle control: Bayesian nonlinear dose-response model; for onset of DENV RNA and peak RNA / DENV RNA throughout the study period (up to day 28): day -1 to day 10; for onset of DENV RNA and peak RNA: in some animals; for median reduction in DENV peak RNA levels compared with vehicle control: estimated
Method: Compound (a) was tested in a non-human primate (NHP) model against DENV-2/16681. The setup of the experiment was designed as a pre-exposure prophylaxis (PreP) study. Oral administration of compound (a) started one day before experimental infection (day −1) and continued with daily administrations until 10 days post-infection. On day 0, the animals were infected by intradermal inoculation with 100 TCID50 of DENV-2/16681 virus in a total volume of 0.1 mL (FIG. 11).
The rhesus monkeys were divided in 7 groups representing the following treatment regimens: • (i) Vehicle 100% PEG400 (n=5) • (ii) Group 1: 0.01 mg/kg/dose, q.d. (n=3), • (iii) Group 2: 0.18 mg/kg/dose, q.d. (n=3), • (iv) Group 3: 3 mg/kg/dose, q.d. (n=3), • (v) Group 4: 0.024 mg/kg/dose, q.d. (n=4), • (vi) Group 5: 0.09 mg/kg/dose, q.d. (n=4), • (vii) Group 6: 0.93 mg mg/kg/dose, q.d. (n=4).
The antiviral activity of compound (a) in a prophylactic setting is being assessed in DENV-2/16681 infected rhesus monkeys (Macaca mulatta). Blood samples were taken on a daily basis from day 0 until day 11, and on day 14 and day 28. DENV RNA was measured using real-time qPCR as described by Santiago et al. (2013). Results from compound (a) doses of 0.01, 0.024, 0.09, 0.18, 0.93 and 3 mg/kg, administered once daily from day 1 before infection until day 10 post infection, are shown in FIGS. 12A and B.
Based on a Bayesian nonlinear dose-response statistical model, the peak viral load reduction compared with vehicle was estimated for each dose group. […] A dose dependent median reduction in DENV peak RNA levels of 0.78, 1.91, 4.73 and 6.76 log10 genome copy equivalents (GCE) per milliliter (GCE/mL) plasma compared with vehicle control was estimated with the 0.09, 0.18, 0.93 and 3 mg/kg doses, respectively (Table 1).

DENV-2/Rega lab strain = test: AG129 mouse model, low viral input (10^2 PFU), PrEP, post-exposure prophylaxis and treatment (delayed treatment start); assay type: in vivo, AG129 mice; conditions: 30 mg/kg/dose b.i.d.; for viral load at viral rebound: start 2 days after infection (group 4)
Method: AG129 mice, age- and sex-matched (6 to 9 weeks of age), were used to assess the activity of compound (b) on viral RNA levels in the serum of the mice. The animals were infected intraperitoneally (i.p.) with 1×10^2 PFU DENV-2/Rega lab strain and treated for five consecutive days with compound (b) which was administered by oral gavage. Compound (b) was administered every 12 hours (twice daily or b.i.d.).
The mice were divided in six treatment groups (n=8/group) representing the following treatment regimens: • (i) Vehicle 80%/20% PEG400/H2O (group 1), • (ii) 30 mg/kg/dose compound (b) b.i.d.: first administration 1 hour before infection (group 2), • (iii) 30 mg/kg/dose compound (b) b.i.d., first administration 1 day after infection (group 3), • (iv) 30 mg/kg/dose compound (b) b.i.d., first administration 2 days after infection (group 4), • (v) 30 mg/kg/dose compound (b) b.i.d., first administration 3 days after infection (group 5), • (vi) 30 mg/kg/dose compound (b) b.i.d., first administration 4 days after infection (group 6), • (vii) 30 mg/kg/dose compound (b) b.i.d., first administration 5 days after infection (group 7), • (viii) 30 mg/kg/dose compound (b) b.i.d., first administration 6 days after infection (group 8).
Blood for viral RNA load detection was collected from mice in two alternating sub-groups. Each sub-group comprised half of the mice (n/2=4) from each of the treatment groups (i) to (viii). Blood was collected from a first sub-group at days 2, 4, 6, 8 and 12 p.i. and from a second sub-group at days 3, 5, 7, 9 and 14 p.i. At day 12 p.i., half of the mice in each treatment group (n=4/group) were sacrificed. The remaining mice in each treatment group (n=4/group) were sacrificed at day 14 p.i. (FIG. 17Y).

DENV-2 Rega lab strain = test: Lethal DENV challenge study (survival study) in AG129 mice with 4G2 antibody-dependent enhancement; assay type: in vivo; conditions: monitored max. 25 days, 10^6 PFU
Method: In the lethal DENV challenge study (or survival study), antibody-dependent-enhancement (ADE) induced dengue disease is imitated by injecting AG129 mice (n=10 per group) i.p. with Anti-Flavivirus Group Antigen Antibody, clone D1-4G2-4-15 (‘4G2’; Millipore), one day prior to challenge with DENV-2 Rega lab strain (1×10^6 PFU, i.p.). Animals were treated by administering compound (b) by oral gavage with a first administration at one hour prior to infection. The treatment continued for five consecutive days with one administration of compound (b) every 12 hours (twice daily or b.i.d.). (FIG. 15X).
The mice were divided in several groups (n=8/group for the viremia study and n=10/group for the survival study) representing the following treatment regimens: • (i) vehicle, 80%/20% PEG400/H2O • (ii) compound (b): 30 mg/kg/dose b.i.d. • (iii) compound (b): 10 mg/kg/dose b.i.d. • (iv) compound (b): 3 mg/kg/dose b.i.d. • (v) compound (b): 1 mg/kg/dose b.i.d.
Next, the impact of compound (b) was assessed on virus-induced disease and mortality when dosed (orally, b.i.d.) for just 5 consecutive days starting at the day of infection (survival study). Animals were monitored for a maximum period of 25 days. All but one (19 of 20) vehicle-treated mice had to be euthanized. At a dose of 30 mg/kg, 90% of the mice survived the viral challenge and at doses of 10, 3 and 1 mg/kg, the survival rate was respectively 80%, 85% and 75% (FIG. 15Z).

[1] = first administration 4 days after infection (group 6)
[2] = first administration 5 days after infection (group 7)

How did the “reduction in median peak DENV RNA compared with vehicle, significance” value (DENV-2/16681; 0.01 mg/kg q.d. oral) turn out when `COc1cc(NC(C(=O)c2c[nH]c3ccc(OC(F)(F)F)cc23)c2ccc(Cl)cc2OC)cc(S(C)(=O)=O)c1` (centres unmarked) [compound (a)] was run?
Its value is “No statistically significant reduction”.

What about the “reduction in median peak DENV RNA compared with vehicle, significance” value (DENV-2/16681; 0.024 mg/kg q.d. oral) of the same compound?
The value was “No statistically significant reduction”.

What about the “onset of DENV RNA and peak RNA” value (DENV-2/16681; 0.09 mg/kg q.d. oral) of the same compound?
Its value is “delayed onset of DENV RNA and peak RNA”.

And the “median reduction in DENV peak RNA levels compared with vehicle control” value (“median reduction in DENV peak RNA levels” for short) (DENV-2/16681; 0.09 mg/kg q.d. oral)?
The value was 0.78 log10 GCE/mL.

And the “onset of DENV RNA and peak RNA” value (DENV-2/16681; 0.18 mg/kg q.d. oral)?
The value was “delayed onset of DENV RNA and peak RNA”.

What about the “median reduction in DENV peak RNA levels” value (DENV-2/16681; 0.18 mg/kg q.d. oral) of the same compound?
The value was 1.91 log10 GCE/mL.

And the “DENV RNA throughout the study period (up to day 28)” value (DENV-2/16681; 0.93 mg/kg q.d. oral)?
The value was “No DENV RNA was detectable”.

And the “median reduction in DENV peak RNA levels” value (DENV-2/16681; 0.93 mg/kg q.d. oral)?
The value was 4.73 log10 GCE/mL.

What about the “DENV RNA throughout the study period (up to day 28)” value (DENV-2/16681; 3 mg/kg q.d. oral) of the same compound?
Its value is “No DENV RNA was detectable”.

And the “median reduction in DENV peak RNA levels” value (DENV-2/16681; 3 mg/kg q.d. oral)?
Its value is 6.76 log10 GCE/mL.

Which results are given for `COc1cc(NC(C(=O)N2CCc3ccc(OC(F)(F)F)cc32)c2ccc(Cl)cc2)cc(OCCCC(=O)O)c1` (centres unmarked) [compound (b)]?
viral RNA in the serum (DENV-2/Rega lab strain; first administration 1 hour before infection (group 2)): undetectable levels; viral RNA in the serum (DENV-2/Rega lab strain; first administration 1 day after infection (group 3)): undetectable levels; viral RNA in the serum (DENV-2/Rega lab strain; first administration 2 days after infection (group 4), except two measurements): undetectable levels; viral load until day 9 post infection (DENV-2/Rega lab strain; first administration 3 days after infection (group 5)): undetectable viral load; peak viral load reduction (DENV-2/Rega lab strain; [1]): 1.1 log10 copies/mL; time to undetectable viral load compared with vehicle treated mice (DENV-2/Rega lab strain; [1]): undetectable viral load was reached earlier; peak viral load reduction (DENV-2/Rega lab strain; [2]): 0.7 log10 copies/mL; time to undetectable viral load compared with vehicle treated mice (DENV-2/Rega lab strain; [2]): undetectable viral load was reached earlier; time to undetectable viral load compared with vehicle treated mice (DENV-2/Rega lab strain; first administration 6 days after infection (group 8)): undetectable viral load was reached earlier; viral load at viral rebound (DENV-2/Rega lab strain; day 9 post infection): 3.0 log10 copies/mL; viral load at viral rebound (DENV-2/Rega lab strain; day 14 post infection): 4.7 log10 copies/mL; viral RNA detected (DENV-2/Rega lab strain; start 3 days after infection (group 5), day 12 post infection): 5.0 log10 copies/mL; survival rate (DENV-2 Rega lab strain; 1 mg/kg b.i.d. orally for 5 days): 75%; survival rate (DENV-2 Rega lab strain; 3 mg/kg b.i.d. orally for 5 days): 85%; survival rate (DENV-2 Rega lab strain; 10 mg/kg b.i.d. orally for 5 days): 80%; survival rate (DENV-2 Rega lab strain; 30 mg/kg b.i.d. orally for 5 days): 90%
